Experimental data from BindingDB's records for doi:10.1016/j.ejmech.2021.113512 (Jagiellonian University Medical College, 2021).

assay: Inhibition of mouse GAT3 expressed in human HEK293 cell line assessed as inhibition of [3H]GABA uptake measured after 40 mins […]

SMILES | IC50
CN(CCC=C1c2ccccc2-c2ccccc21)C(CCO)C(=O)NCc1ccccc1 (configuration not stated) | 12.6 µM
CN(CCC=C1c2ccccc2C=Cc2ccccc21)C(CCO)C(=O)NCc1ccc(Cl)cc1 (configuration not stated) | 13.5 µM
CN(CCC=C(c1ccccc1)c1ccccc1)C(CCN)C(=O)NCc1ccccc1Cl (configuration not stated) | 10 µM
CN(CCC=C1c2ccccc2C=Cc2ccccc21)C(CCO)C(=O)NCc1ccccc1Cl (configuration not stated) | 8.91 µM
CN(CCC=C1c2ccccc2-c2ccccc21)C(CCO)C(=O)NCc1ccccc1Cl (configuration not stated) | 16.2 µM
CN(CCC=C1c2ccccc2-c2ccccc21)C(CCO)C(=O)NCc1ccc(Cl)cc1 (configuration not stated) | 10.2 µM
Cc1ccc(CNC(=O)C(CCO)N(C)CCC=C2c3ccccc3C=Cc3ccccc32)cc1 (configuration not stated) | 17 µM
CN(CCC=C1c2ccccc2C=Cc2ccccc21)C(CCO)C(=O)NCc1ccc(F)cc1 (configuration not stated) | 12.3 µM
CN(CCC=C1c2ccccc2C=Cc2ccccc21)C(CCO)C(=O)NCc1ccccc1 (configuration not stated) | 13.5 µM
CN(CCC=C1c2ccccc2CCc2ccccc21)C(CCO)C(=O)NCc1ccccc1Cl (configuration not stated) | 12.6 µM
Cc1ccc(CNC(=O)C(CCO)N(C)CCC=C2c3ccccc3-c3ccccc32)cc1 (configuration not stated) | 20 µM
Cc1ccsc1C(=CCCN(C)[C@H]1CCCC[C@H]1C(=O)O)c1sccc1C | 933 µM

Now from value to compound:

IC50 | SMILES
16.6 µM | CN(CCC=C1c2ccccc2CCc2ccccc21)C(CCO)C(=O)NCc1ccc(F)cc1 (configuration not stated)
12.6 µM | Cc1ccc(CNC(=O)C(CCO)N(C)CCC=C2c3ccccc3CCc3ccccc32)cc1 (configuration not stated)
8.13 µM | CN(CCC=C1c2ccccc2CCc2ccccc21)C(CCN)C(=O)NCc1ccccc1Cl (configuration not stated)
13.5 µM | CN(CCC=C1c2ccccc2-c2ccccc21)C(CCO)C(=O)NCc1ccc(F)cc1 (configuration not stated)
4.79 µM | Cc1ccc(CNC(=O)C(CCN)N(C)CCC=C2c3ccccc3CCc3ccccc32)cc1 (configuration not stated)
11.5 µM | CN(CCC=C1c2ccccc2CCc2ccccc21)C(CCO)C(=O)NCc1ccccc1 (configuration not stated)
4.79 µM | CN(CCC=C1c2ccccc2CCc2ccccc21)C(CCN)C(=O)NCc1ccc(F)cc1 (configuration not stated)
14.5 µM | CC(=O)NCCC(C(=O)NCc1ccc(Cl)cc1)N(C)CCC=C1c2ccccc2CCc2ccccc21 (configuration not stated)
5.13 µM | CN(CCC=C1c2ccccc2CCc2ccccc21)C(CCN)C(=O)NCc1ccc(Cl)cc1 (configuration not stated)
5.62 µM | CC(=O)NCCC(C(=O)NCc1ccc(C)cc1)N(C)CCC=C1c2ccccc2CCc2ccccc21 (configuration not stated)
